# Source: patent US20160137630A1, “INDUCTION OF GATA2 BY HDAC1 AND HDAC2 INHIBITORS” (ACETYLON PHARMACEUTICALS, INC., priority 2014, published 2016)
# Entries after “also recorded” stand apart in the source; their conditions may differ. Like-named read-outs stand apart in the source and are kept apart here.
# Assays:
# Gata2 mRNA = test: induction of Gata2 mRNA in erythroid progenitors by HDAC1,2 inhibitors; format: cell-based, human; settings: erythroid progenitors differentiated 3 days with compound; FIG. 2A-C
# Description: Human bone marrow derived CD34+ cells were expanded for 7 days as described by Sankaran et al., Science, vol. 322(5909), pp. 1839-42 (2008). Cells were then differentiated, in the presence of the indicated compound (i.e., Compounds 001, Compound Y, Compound 2005, Compound 2004, Compound 2003), for 3 days in media supporting erythropoiesis (Hu et al., “Isolation and functional characterization of human erythroblasts at distinct stages: implications for understanding of normal and disordered erythropoiesis in vivo”, Blood, vol. 121(16), pp. 3246-53 ([…])). FIG. 2A, FIG. 2B, and FIG. 2C each represents an experimental series performed on different days and with different donor cells.
# HDAC2 = HDAC2 (Homo sapiens, UniProt Q92769); test: in vitro biochemical HDAC inhibition assay
# Chain of HDAC2 (Q92769 whole entry): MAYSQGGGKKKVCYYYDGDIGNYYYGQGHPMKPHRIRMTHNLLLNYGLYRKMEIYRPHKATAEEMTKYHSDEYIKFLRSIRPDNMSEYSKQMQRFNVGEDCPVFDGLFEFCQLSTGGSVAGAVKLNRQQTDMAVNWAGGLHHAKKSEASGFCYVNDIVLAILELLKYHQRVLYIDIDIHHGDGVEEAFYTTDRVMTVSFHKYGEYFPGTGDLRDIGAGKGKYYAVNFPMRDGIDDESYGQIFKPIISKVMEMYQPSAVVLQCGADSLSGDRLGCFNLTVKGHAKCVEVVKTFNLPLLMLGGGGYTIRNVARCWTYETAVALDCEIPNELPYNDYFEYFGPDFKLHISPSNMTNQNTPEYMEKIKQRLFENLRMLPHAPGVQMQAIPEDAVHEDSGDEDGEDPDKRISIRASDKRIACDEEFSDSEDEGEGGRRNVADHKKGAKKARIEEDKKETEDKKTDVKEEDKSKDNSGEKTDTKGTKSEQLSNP
# [1] = system: CD34+ bone marrow cells undergoing erythroid differentiation; test: Affymetrix GeneChip mRNA expression profiling; format: cell-based, human
# Description: The knockdown results were derived from an independent analysis of publically available raw data (Bradner et al., “Chemical genetic strategy identifies histone deacetylase 1 (HDAC1) and HDAC2 as therapeutic targets in sickle cell disease”, PNAS, vol. 107(28), pp. 12617-22 (2010)) and detection of mRNA by Affymetrix GeneChip.
# Among the genes differentially regulated by both pharmacological inhibition and genetic ablation of HDAC1/2 were Bcl11a and Sox6, known HbG repressors, and Gata2, a potential HbG activator.
# Then, the cells were differentiated by exposure to either vehicle (control) or Compound 001. FACS was performed at day 5. […] GlyA.
# The mechanism through which HDAC1/2 inhibition induces HbG by performing gene expression profiling was interrogated. Because HDAC inhibition prevented cells from fully upregulating GlyA (FIG. 19E), RNA was isolated at day 5 of differentiation, a time point prior to the observed differentiation block.
# Next, using the GeneChip data, a candidate gene approach was taken to determine which HbG modulators were changing as a result of both chemical and genetic HDAC1/2 inhibition (FIG. 1A). […] In contrast, other HbG repressors, such as Myb and Klf1 were unaffected. Expression changes were not observed for other genes involved in HbG regulation, including KDM1A (LSD1), NR2C1 (TR2) and NR2C2 (TR4), NR2F2 (COUP-TFII) and nuclear factor Y subunits, and proteins known to associate with Bcl11a12 (data not shown).
# [2] = system: histone acetylation (H3K9/14ac, H3K56ac, H3K79ac, H2BK5ac); test: histone acetylation levels by western blot; settings: 1 and 5 μM, FIG. 9B
# HDACs 4-9 = test: in vitro HDAC inhibition assay, HDACs 4-9; format: biochemical; settings: concentrations as high as 20 μM; FIG. 20
# HbG mRNA = test: % HbG mRNA induction in 2-phase culture systems CS1 and CS2; format: cell-based, human
# Description: Then, the cells were differentiated by exposure to either vehicle (control) or Compound 001. RNA samples of HbG were taken at days 0, 3, 5, and 8. […] Staining cells with a FITC-conjugated anti-HbF antibody and flow cytometry was used to measure induction of fetal hemoglobin.
# sickle donor cells = test: HbG induction in sickle donor cells; format: cell-based; settings: peripheral blood mononuclear cells from four different donors; FIG. 11B
# Description: Then, the cells from each donor were differentiated by exposure to either vehicle (control) or Compound 001. RNA samples of HbG were taken from each group of donor cells at days 0, 3, and 5.
# Gata2 regulatory regions = test: Gata2 ChIP-seq at the Gata2 locus; format: cell-based; settings: −1.8 kb region
# Description: As above, differentiation profiles of compound treated cells were highly similar to control cells (FIG. 23A). It was observed that Gata2 occupancy at the Gata2 locus is tightly correlated between K562 and primary erythroid progenitors. In both cases, binding was limited to the +9.5, −1.8, −2.8, and −3.9 kb regulatory regions (data not shown).
# [3] = system: Human CD34+ bone marrow cells; test: erythroid maturation in CS1 by CD71/GlyA flow cytometry; format: cell-based; settings: 1 μM
# Description: To investigate the effects of HDAC inhibition on later stages of erythroid maturation, differentiation in CS1 was followed by flow cytometry using fluorescent antibodies against the transferrin receptor (CD71) and glycophorin A (GlyA). […] The majority of vehicle control cells continued to differentiate, becoming CD71^posGlyA^pos by day 8. […] CD71^posGlyA^mid cells are equivalent to proerythroblasts (ProE), while CD71^posGlyA^pos cells include the more differentiated basophilic and polychromatic erythroblasts.
# HDAC1 = HDAC1 (Homo sapiens, UniProt Q13547); test: in vitro biochemical HDAC inhibition assay
# Chain of HDAC1 (Q13547 whole entry): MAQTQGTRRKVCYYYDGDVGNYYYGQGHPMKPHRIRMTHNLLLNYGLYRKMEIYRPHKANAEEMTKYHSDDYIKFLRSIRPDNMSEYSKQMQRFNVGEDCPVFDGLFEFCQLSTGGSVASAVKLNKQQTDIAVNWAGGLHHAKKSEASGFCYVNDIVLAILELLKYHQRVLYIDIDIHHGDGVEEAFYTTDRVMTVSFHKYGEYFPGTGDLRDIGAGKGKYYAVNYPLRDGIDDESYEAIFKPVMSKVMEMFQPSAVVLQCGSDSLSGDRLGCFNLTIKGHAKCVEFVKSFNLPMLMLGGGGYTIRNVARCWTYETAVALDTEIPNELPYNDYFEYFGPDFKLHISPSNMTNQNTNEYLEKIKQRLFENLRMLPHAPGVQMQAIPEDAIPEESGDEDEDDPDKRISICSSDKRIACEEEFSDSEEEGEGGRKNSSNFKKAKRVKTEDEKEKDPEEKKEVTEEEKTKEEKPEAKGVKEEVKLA
# [4] = dosing schedule study in rats; format: in vivo, rat; settings: 30 mg/kg
# Procedure: IV. Rats were dosed with 30 mg/kg once daily by oral gavage according to the above schedule. […] Group 1=daily dosing, Group 2=5 on 2 off, Group 3=3 on 4 off, Group 4=every other day, Group 5=control. N=4 animals per group (FIG. 28A).
# Data points are the average of N=4 animals. HbE2 mRNA level was determined by quantitative real time PCR and expressed relative to HbB mRNA control. Data for each animal was then normalized to the expression level prior to the onset of dosing (average of day −3 and day 0 values).
# Data points are the average of N=4 animals.
# [5] = system: K562 erythroleukemia cells; test: Gata2 mRNA in K562 cells; format: cell-based; settings: 3 days, FIG. 3
# [6] = Compound 001 1 μM vs vehicle, day 5
# [7] = every other day dosing schedule
compound,measurement,setting,value
"Nc1ccc(-c2cccs2)cc1NC(=O)c1ccc2nc(N3CCNCC3)ccc2c1 [Compound 001, N-(2-amino-5-(thiophen-2-yl)phenyl)-2-(piperazin-1-yl)quinoline-6-carboxamide]",Gata2 mRNA,Gata2 mRNA,induction of Gata2 mRNA
same,IC50,"HDAC2; Table 2, read-out: IC50 HDAC2",15 nM
same,IC50,"HDAC2; pre-incubation time of 24 hours, FIG. 9A, 17B, read-out: IC50 against HDAC2",18 nM
same,candidate gene expression ratio Bcl11a,[1]; [6],0.8
same,candidate gene expression ratio Gata1,[1]; [6],1.0
same,candidate gene expression ratio Gata2,[1]; [6],2.8
same,candidate gene expression ratio KLF1,[1]; [6],0.9
same,candidate gene expression ratio Myb,[1]; [6],1.1
same,candidate gene expression ratio Sox6,[1]; [6],0.4
same,Bcl11a down-regulation,"[1]; GeneChip, FIG. 1A",1.3 fold
same,Gata2 up-regulation,"[1]; GeneChip, FIG. 1A",2.8 fold
same,Klf1 expression change,"[1]; GeneChip, FIG. 1A",unaffected
same,Myb expression change,"[1]; GeneChip, FIG. 1A",unaffected
same,Sox6 down-regulation,"[1]; GeneChip, FIG. 1A",2.5 fold
same,"histone acetylation (H3K9/14ac, H3K56, H3K79ac, H2BK5ac)",[2],dose-dependent accumulation of acetylation
same,inhibition of HDACs 4-9,HDACs 4-9,negligible inhibitory activity; also recorded: no inhibition
same,% HbG,"HbG mRNA; 1 μM, increased from 10%",46%
same,induction in % HbG,"HbG mRNA; differentiation phase, both culture systems, FIG. 10B, 21A-C",dose- and time-dependent induction
same,HbG,sickle donor cells,induced HbG
same,maximum increase in Gata2 binding (peak height),Gata2 regulatory regions,3 fold
same,erythroid differentiation (CD71/GlyA),[3]; by day 8,block differentiation of proerythroblasts to basophilic erythroblasts
same,erythroid differentiation (CD71/GlyA),[3]; first 5 days,differentiated normally
same,IC50,"HDAC1; Table 2, read-out: IC50 HDAC1",4 nM
same,IC50,"HDAC1; pre-incubation time of 24 hours, FIG. 9A, 17B, read-out: IC50 against HDAC1",7 nM
same,mode of HbF expression (HbE2 mRNA pattern),[4]; 3 on 4 off dosing schedule,heterocellular mode of HbF expression
same,myelosuppression (white blood cell counts),[4]; 3 on 4 off dosing schedule,greater myelo suppression
same,mode of HbF expression (HbE2 mRNA pattern),[4]; [7],pancellular mode of HbF expression
same,myelosuppression (white blood cell counts),[4]; [7],less myelosuppression
same,Gata2 mRNA,[5],dose dependent response
